Experimental data published in ChEMBL document CHEMBL3098116, “Synthesis and biological evaluation of the pirfenidone derivatives as antifibrotic agents” (Bioorg Med Chem Lett, 2014).

How the values were obtained:
MRC5 = assay: Antifibrotic activity in human MRC5 cells assessed as inhibition of cell growth after 24 hrs by MTT assay; format: functional, cell-based; settings: MRC5, 24 h
[1] = biological target: T1, Mitogen-activated protein kinase 14 (Homo sapiens, UniProt Q16539); assay: Inhibition of p38alpha (unknown origin) up to 60 mins by ADP-Glo assay
[2] = biological target: T1, Mitogen-activated protein kinase 14; assay: Ratio of pirfenidone IC50 for compound IC50 for p38alpha (unknown origin) up to 60 mins by ADP-Glo assay

T1 sequence (Q16539 whole entry): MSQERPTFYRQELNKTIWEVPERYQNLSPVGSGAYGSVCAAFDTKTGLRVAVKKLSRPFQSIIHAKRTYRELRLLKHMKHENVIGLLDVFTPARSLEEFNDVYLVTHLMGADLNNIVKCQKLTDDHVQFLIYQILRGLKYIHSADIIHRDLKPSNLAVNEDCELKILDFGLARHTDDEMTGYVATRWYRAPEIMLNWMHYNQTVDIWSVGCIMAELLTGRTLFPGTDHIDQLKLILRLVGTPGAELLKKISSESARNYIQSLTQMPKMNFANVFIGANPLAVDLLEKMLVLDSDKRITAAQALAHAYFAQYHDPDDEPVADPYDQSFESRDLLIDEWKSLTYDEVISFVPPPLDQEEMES

| IC50 [1] [µM] | Ratio IC50 [2] | Compound | IC50 (MRC5) [mM] |
| --- | --- | --- | --- |
| – | – | CCN(CC)CCCOc1ccc(-n2cc(C)ccc2=O)cc1 | 2.1 |
| – | – | Cc1ccc(=O)n(-c2ccc(OCCN3CCN(C)CC3)cc2)c1 | 1.36 |
| 54.3 | – | Cc1ccc(=O)n(-c2ccc(OCCN3CCCCC3)cc2)c1 | 2.48 |
| – | – | Cc1ccc(=O)n(-c2ccc(OCCCCN3CCOCC3)cc2)c1 | 3.03 |
| 165 | – | Cc1ccc(=O)n(-c2ccccc2)c1 [PIRFENIDONE] | 14.4 |
| – | – | CCN(CC)CCOc1ccc(-n2cc(C)ccc2=O)cc1 | 6.2 |
| 14.2 | – | Cc1ccc(=O)n(-c2ccc(OCCCN(C)C)cc2)c1 | 5.22 |
| 16.2 | – | Cc1ccc(=O)n(-c2ccc(OCCCCCN3CCCCC3)cc2)c1 | 3.67 |
| – | – | Cc1ccc(=O)n(-c2ccc(OCCCN3CCN(C)CC3)cc2)c1 | 4.36 |
| – | – | Cc1ccc(=O)n(-c2ccc(OCCCCN3CCCC3)cc2)c1 | 1.77 |
| – | – | Cc1ccc(=O)n(-c2ccc(OCCCCN(C)C)cc2)c1 | 1.8 |
| – | – | Cc1ccc(=O)n(-c2ccc(OCCN(C)C)cc2)c1 | 6.88 |
| – | – | Cc1ccc(=O)n(-c2ccc(OCCCCN3CCN(C)CC3)cc2)c1 | 2.33 |
| – | – | Cc1ccc(=O)n(-c2ccc(OCCCN3CCCC3)cc2)c1 | 3 |
| – | – | Cc1ccc(=O)n(-c2ccc(OCCN3CCOCC3)cc2)c1 | 7.64 |
| – | – | Cc1ccc(=O)n(-c2ccc(OCCCCCN(C)C)cc2)c1 | 2.98 |
| – | – | Cc1ccc(=O)n(-c2ccc(OCCN3CCCC3)cc2)c1 | 3.78 |
| – | – | Cc1ccc(=O)n(-c2ccc(OCCCCCN3CCCC3)cc2)c1 | 1.47 |
| – | – | Cc1ccc(=O)n(-c2ccc(OCCCN3CCOCC3)cc2)c1 | 5.28 |
| – | – | Cc1ccc(=O)n(-c2ccc(OCCCCCN3CCN(C)CC3)cc2)c1 | 3.41 |
| – | – | Cc1ccc(=O)n(-c2ccc(OCCCCCN3CCOCC3)cc2)c1 | 2.59 |
| 4.07 | 40 | Cc1ccc(=O)n(-c2ccc(OCCCN3CCCCC3)cc2)c1 | 2.55 |
| – | – | CCN(CC)CCCCOc1ccc(-n2cc(C)ccc2=O)cc1 | 2.16 |
| – | – | CCN(CC)CCCCCOc1ccc(-n2cc(C)ccc2=O)cc1 | 4.35 |
| 5.21 | – | Cc1ccc(=O)n(-c2ccc(OCCCCN3CCCCC3)cc2)c1 | 3.29 |
